The subject of assay [1] is MDA-MB-231-luc cells. Put plainly: Antitumor test using MDA-MB-231-luc cells (subcutaneous transplant). The assay is classed as in vivo, Balb/c nu/nu mice. Particulars: change in tumor volume, vehicle group = 100%. The protocol:
Experimental Example 3 Antitumor Test using MDA-MB-231-luc Cells
6-Week-old Balb/c nu/nu mice were transplanted subcutaneously with 5×10^6 cells/100 μL, and the mice were grouped according to the body weight and tumor volume after 1 to 2 weeks. Vehicle (0.5% MC) or a compound was administered orally to mice (6 mice per group). The administration was twice per day and performed continuously during the dosing period. Setting the change in tumor volume of the vehicle-treated group as 100%, the change rate in tumor volume of the compound-treated group (□/C %) was calculated.

Assay [2] deals with T1, GST-ERR-α ligand-binding domain (Homo sapiens, UniProt P11474).
T1 sequence (P11474 193-421 limits assumed): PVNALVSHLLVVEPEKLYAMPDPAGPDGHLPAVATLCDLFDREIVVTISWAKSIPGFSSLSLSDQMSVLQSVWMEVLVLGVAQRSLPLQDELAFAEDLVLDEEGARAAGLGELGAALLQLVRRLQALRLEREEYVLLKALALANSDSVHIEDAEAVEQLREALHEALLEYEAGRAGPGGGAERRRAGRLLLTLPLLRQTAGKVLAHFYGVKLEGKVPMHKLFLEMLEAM
Put plainly: HTRF assay system using ERR-α ligand-binding domain (inverse agonist activity, biotinylated SRC-1 (676-700) peptide). The note with it: compound final concentration 30 μM, 665/620 ratio, no compound = 0%, 10 μM XCT-790 = 100%; for inhibition at 30 µM: read-out: inhibition rate (%) at 30 μM. The assay is classed as biochemical. As to the method: Experimental Example 1 Compound Evaluation in HTRF Assay System Using ERR-α Ligand-Binding Domain
An assay buffer (25 mM HEPES, 100 mM NaCl, 1 mM DTT, 0.1% BSA) containing 5 nM GST-ERR-α ligand-binding domain (final concentration 1.25 nM) was added to a 384 well plate, then 40 μM N-[5-(trifluoromethyl)-1,3,4-thiadiazol-2-yl]-2-cyano-3-[3-methoxy-4-[2,4-di(trifluoromethyl)benzyloxy]phenyl]propenamide (XCT-790) (final concentration 10 μM), or 120 μM compound (final concentration 30 μM) was added. Furthermore, an assay buffer containing XL665 conjugated Streptavidin, Eu^3+ criptate conjugated GST antibody and 200 nM biotinylated SRC-1 (676-700) (final concentration 100 nM) was added, and the mixture was reacted at room temperature for 2 hr. Using Multiplate reader Envision (Perkin Elmer Inc.), after excitation at 320 nm, fluorescence values at 620 nm and 665 nm were measured. The inverse agonist activity of the compound was calculated in percentage with the 665/620 ratio value inhibited by no addition of compound as 0%, and with addition of final concentration 10 μM of XCT-790 as 100%.
Background: TR-FRET usually uses a lanthanide donor and a delayed reading to cut background.

Assay [3] addresses T2, fusion protein containing GAL4-DNA-binding domain and ERR full-length (Homo sapiens, UniProt P11474).
T2 construct: expressed in transfected cells; host or cells: 293T cells
T2 sequence (P11474 1-423): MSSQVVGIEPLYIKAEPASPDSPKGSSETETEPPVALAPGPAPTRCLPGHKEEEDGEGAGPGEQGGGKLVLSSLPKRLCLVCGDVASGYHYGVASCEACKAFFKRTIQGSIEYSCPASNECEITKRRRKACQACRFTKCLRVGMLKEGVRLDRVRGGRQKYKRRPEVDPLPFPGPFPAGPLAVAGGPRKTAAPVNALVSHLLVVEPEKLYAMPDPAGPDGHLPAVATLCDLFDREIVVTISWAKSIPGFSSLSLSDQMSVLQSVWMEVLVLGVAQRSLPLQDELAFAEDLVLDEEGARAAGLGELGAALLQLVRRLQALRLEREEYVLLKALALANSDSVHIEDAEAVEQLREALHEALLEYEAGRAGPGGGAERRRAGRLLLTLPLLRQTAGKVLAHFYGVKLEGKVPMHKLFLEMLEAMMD
Put plainly: Reporter assay system using 293T cells (GAL4-ERR luciferase, inverse agonist activity). Particulars: compound final concentration 3 μM, no compound = 0%, 10 μM XCT-790 = 100%; for inhibition at 3 µM: HEK-293T, read-out: inhibition rate (%) at 3 μM. It counts as cell-based. The protocol: Experimental Example 2 Compound Evaluation in Reporter Assay System Using 293T Cells
293T cells derived from human kidney were seeded in a 150 cm^2 flask by 6,000,000 cells, and cultured in a medium (DMEM medium containing 10% inactivated Fetal Bovine Serum sterile filtered (FBS), […] Gentamicin, 10 mM HEPES buffer (pH 7.4)) at 37° C. in the presence of 5% CO2 for 1 day.
Then, vector DNA having a gene encoding a fusion protein, containing GAL4-DNA-binding domain and ERR full-length and a vector DNA wherein luciferase gene is fused at the downstream of GAL4-binding-sequence were cotransfected by a lipofection method, and the cells were cultured at 37° C. in the presence of 5% CO2 for 1 day. The cells were recovered, sown in a 384 well plate by 15,000 cells, and cultured at 37° C. in the presence of 5% CO2 for 3 hrs. Furthermore, 50 μM N-[5-(trifluoromethyl)-1,3,4-thiadiazol-2-yl]-2-cyano-3-[3-methoxy-4-[2,4-di(trifluoromethyl)benzyloxy]phenyl]propenamide (XCT-790) (final concentration 10 μM) or 15 μM compound (final concentration 3 μM) was added, and the cells were cultured at 37° C. in the presence of 5% CO2 for 1 day. The luciferase activity was measured by using multiplate reader Envision (Perkin Elmer Inc.). The inverse agonist activity of the compound was calculated in percentage with the luciferase activity inhibited by no addition of compound as 0%, and with addition of final concentration 10 μM of XCT-790 as 100%.
On the technique in general: Reporter assays use an easily measured gene product as a stand-in for the process of interest.

The mark [4] stands for this setting: 50 mg/kg orally twice per day, dosing period 14 days.

By inhibition is commonly meant the change of the read-out against control, counted positive when it falls.

Where a name gives a salt, the structure may show the parent alone.

For `C#CCNC1=NC(=O)S/C1=C\C1CCN(Cc2ccc(C(F)(F)F)cc2C(F)(F)F)CC1` [Example 7, (5Z)-5-({1-[2,4-bis(trifluoromethyl)benzyl]piperidin-4-yl}methylidene)-4-(prop-2-yn-1-ylamino)-1,3-thiazol-2(5H)-one], the “T/C (%)” value in assay [1] (setting [4]) was determined as 24%. Further, in assay [2], the “inhibition rate (%) at 30 μM” value turned out to be 100%. The “inhibition rate (%) at 3 μM” value in assay [3] is recorded as 87%.
Regarding `O=C1N=C(NCCOCCO)/C(=C/C2CCN(Cc3ccc(C(F)(F)F)cc3C(F)(F)F)CC2)S1` [Example 195, (5Z)-5-({1-[2,4-bis(trifluoromethyl)benzyl]piperidin-4-yl}methylidene)-4-{[2-(2-hydroxyethoxy)ethyl]amino}-1,3-thiazol-2(5H)-one hydrochloride], the “T/C (%)” value in assay [1] (50 mg/kg orally twice per day, dosing period 17 days) was determined as 56%. Moreover, the “inhibition rate (%) at 30 μM” value in assay [2] (hydrochloride) is 102%. In addition, the “inhibition rate (%) at 3 μM” value in assay [3] (hydrochloride) came out at 90%.
For `CC(C)(CO)CNC1=NC(=O)S/C1=C\C1CCN(Cc2ccc(C(F)(F)F)cc2C(F)(F)F)CC1` [Example 78, (5Z)-5-({1-[2,4-bis(trifluoromethyl)benzyl]piperidin-4-yl}methylidene)-4-[(3-hydroxy-2,2-dimethylpropyl)amino]-1,3-thiazol-2(5H)-one fumarate], in assay [1] (setting [4]), the “T/C (%)” value is on record as 11%.
With `C#CCNC1=NC(=O)S/C1=C\C1CCN(Cc2ccc(C(F)(F)F)cc2C(F)(F)F)CC1` [Example 10, (5Z)-5-({1-[2,4-bis(trifluoromethyl)benzyl]piperidin-4-yl}methylidene)-4-(prop-2-yn-1-ylamino)-1,3-thiazol-2(5H)-one fumarate], the “T/C (%)” value in assay [1] (60 mg/kg orally twice per day, dosing period 15 days) came out at 15%. For the same compound, the “inhibition rate (%) at 30 μM” value in assay [2] (fumarate) worked out at 102%. The “inhibition rate (%) at 3 μM” value in assay [3] (fumarate) was 93%.
`O=C1N=C(NCCOCCO)/C(=C/C2CCN(Cc3ccc(C(F)(F)F)cc3C(F)(F)F)CC2)S1` [Example 13, (5Z)-5-({1-[2,4-bis(trifluoromethyl)benzyl]piperidin-4-yl}methylidene)-4-{[2-(2-hydroxyethoxy)ethyl]amino}-1,3-thiazol-2(5H)-one ditoluenesulfonate]: the “T/C (%)” value in assay [1] (100 mg/kg orally twice per day, dosing period 15 days) was 20%. Moreover, the inhibition at 30 µM in assay [2] worked out at 105%. The inhibition at 3 µM in assay [3] is 89%.
On to `CC(C)(O)CNC1=NC(=O)S/C1=C\C1CCN(Cc2ccc(C(F)(F)F)cc2C(F)(F)F)CC1` [Example 17, (5Z)-5-({1-[2,4-bis(trifluoromethyl)benzyl]piperidin-4-yl}methylidene)-4-[(2-hydroxy-2-methylpropyl)amino]-1,3-thiazol-2(5H)-one fumarate], for which the “T/C (%)” value in assay [1] (50 mg/kg orally twice per day, dosing period 15 days) came out at 40%. Further, the inhibition at 30 µM in assay [2] was found to be 106%. In assay [3], the inhibition at 3 µM stood at 97%.
`CC(C)(CO)CNC1=NC(=O)S/C1=C\C1CCN(Cc2ccc(C(F)(F)F)cc2C(F)(F)F)CC1` [Example 77, (5Z)-5-({1-[2,4-bis(trifluoromethyl)benzyl]piperidin-4-yl}methylidene)-4-[(3-hydroxy-2,2-dimethylpropyl)amino]-1,3-thiazol-2(5H)-one]: in assay [2], the inhibition at 30 µM is 109%. Also, in assay [3], the inhibition at 3 µM came out at 82%.
In the case of `O=C1N=C(NC2CCOC2)/C(=C/C2CCN(Cc3ccc(C(F)(F)F)cc3C(F)(F)F)CC2)S1` (centres unmarked) [Example 43, (5Z)-5-({1-[2,4-bis(trifluoromethyl)benzyl]piperidin-4-yl}methylidene)-4-(tetrahydrofuran-3-ylamino)-1,3-thiazol-2(5H)-one 0.5 fumarate], the inhibition at 30 µM in assay [2] worked out at 106%. The inhibition at 3 µM in assay [3] stood at 87%.
For `C#CCNC1=NC(=O)S/C1=C\C1CCN(Cc2ccc(Cl)cc2C(F)(F)F)CC1` [Example 24, (5Z)-5-({1-[4-chloro-2-(trifluoromethyl)benzyl]piperidin-4-yl}methylidene)-4-(prop-2-yn-1-ylamino)-1,3-thiazol-2(5H)-one fumarate], in that order: 105% and 92%.
In the same order, the values of `C#CCNC1=NC(=O)S/C1=C\C1CCN(Cc2ccc(C(F)(F)F)cc2C(F)(F)F)C1` (centres unmarked) [Example 69, (5Z)-5-({1-[2,4-bis(trifluoromethyl)benzyl]pyrrolidin-3-yl}methylidene)-4-(prop-2-yn-1-ylamino)-1,3-thiazol-2(5H)-one maleate] are 67% and 87%.
`C#CCNC1=NC(=O)S/C1=C\C1CCN(Cc2ccc(C#N)cc2C(F)(F)F)CC1` [Example 40, 4-[(4-{(Z)-[2-oxo-4-(prop-2-yn-1-ylamino)-1,3-thiazol-5(2H)-ylidene]methyl}piperidin-1-yl)methyl]-3-(trifluoromethyl)benzonitrile]: the inhibition at 30 µM in assay [2] came out at 73%. For the same compound, the inhibition at 3 µM in assay [3] stood at 62%.
`CC(C)(O)CNC1=NC(=O)S/C1=C\C1CCN(Cc2ccc(C(F)(F)F)cc2C(F)(F)F)CC1` [Example 31, (5Z)-5-({1-[2,4-bis(trifluoromethyl)benzyl]piperidin-4-yl}methylidene)-4-[(2-hydroxy-2-methylpropyl)amino]-1,3-thiazol-2(5H)-one]: the “inhibition rate (%) at 30 μM” value in assay [2] is listed as 101%. Also, the “inhibition rate (%) at 3 μM” value in assay [3] was determined as 87%.
For the compound `CN(CCO)CCNC1=NC(=O)S/C1=C\C1CCN(Cc2ccc(C(F)(F)F)cc2C(F)(F)F)CC1` [Example 58, (5Z)-5-({1-[2,4-bis(trifluoromethyl)benzyl]piperidin-4-yl}methylidene)-4-({2-[(2-hydroxyethyl)(methyl)amino]ethyl}amino)-1,3-thiazol-2(5H)-one ½fumarate], in assay [2], the inhibition at 30 µM amounted to 110%. Besides, the inhibition at 3 µM in assay [3] was determined as 91%.
As to `CCCNC1=NC(=O)S/C1=C\C1CCN(Cc2ccc(C(F)(F)F)cc2C(F)(F)F)CC1` [Example 200, (5Z)-5-({1-[2,4-bis(trifluoromethyl)benzyl]piperidin-4-yl}methylidene)-4-(propylamino)-1,3-thiazol-2(5H)-one], the inhibition at 30 µM in assay [2] is 101%. In addition, the inhibition at 3 µM in assay [3] is 88%.
